Values quoted from earlier work, collected in US8968778B2, “Threo-DOPS controlled release formulation” (Lundbeck NA Ltd., priority 2003, dated 2015).

Assays:
[1] = test system: microvessel preparations

Structure (SMILES)	Time that increased plasma levels of both molecules (L-threo-DOPS and NE) remain (after oral administration of L-threo-DOPS)	Time of peak plasma levels of L-threo-DOPS (after oral ingestion)	Time of peak NE levels (after oral ingestion of L-threo-DOPS, norepinephrine in plasma)	Specific uptake in microvessel preparations [1]
N[C@H](C(=O)O)[C@H](O)c1ccc(O)c(O)c1 [L-threo-DOPS]	at least 12 hours	3 h	5 h	–
N[C@H](C(=O)O)[C@H](O)c1ccc(O)c(O)c1 [threo-DOPS, Threo-3-(3,4-dihydroxyphenyl)serine]	–	–	–	Specific uptake
